# Source: patent US7728012B2, “Carboxamide compounds and their use as calpain inhibitors” (Abbott GmbH & Co. KG, priority 2006, dated 2010)
# Legend:
# Type in all cases: biochemical
# [1] = target: T1, calpain-I isolated from human erythrocytes (Homo sapiens, UniProt P07384); assay: Calpain I kinetic fluorescence enzyme inhibition assay; conditions: apparent Ki from IC50 by Cheng-Prussoff; average of 2 to 4 dose-effect plots
# T1 construct: calpain-I—isolated from human erythrocytes; purchased Calbiochem 208713; host or cells: human erythrocytes (tissue isolate)
# T1 sequence (P07384 1-714): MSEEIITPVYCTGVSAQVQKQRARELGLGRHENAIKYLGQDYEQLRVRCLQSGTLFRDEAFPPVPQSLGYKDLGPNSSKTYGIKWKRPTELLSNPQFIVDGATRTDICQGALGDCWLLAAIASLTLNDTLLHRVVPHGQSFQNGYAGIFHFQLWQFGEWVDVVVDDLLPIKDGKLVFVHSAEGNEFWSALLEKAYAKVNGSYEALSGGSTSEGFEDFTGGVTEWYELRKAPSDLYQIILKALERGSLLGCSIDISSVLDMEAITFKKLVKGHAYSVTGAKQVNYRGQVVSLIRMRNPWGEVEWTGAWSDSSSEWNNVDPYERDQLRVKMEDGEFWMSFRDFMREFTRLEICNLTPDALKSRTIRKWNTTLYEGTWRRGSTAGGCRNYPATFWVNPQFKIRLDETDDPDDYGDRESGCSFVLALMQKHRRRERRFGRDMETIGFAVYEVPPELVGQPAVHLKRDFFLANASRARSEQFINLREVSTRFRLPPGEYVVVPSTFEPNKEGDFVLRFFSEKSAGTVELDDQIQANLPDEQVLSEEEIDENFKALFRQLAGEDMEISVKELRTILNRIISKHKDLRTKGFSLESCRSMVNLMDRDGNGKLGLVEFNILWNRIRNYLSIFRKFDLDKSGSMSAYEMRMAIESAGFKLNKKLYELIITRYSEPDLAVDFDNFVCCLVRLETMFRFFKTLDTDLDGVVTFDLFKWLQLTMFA
# T1 sequence (P04632 1-268 partner): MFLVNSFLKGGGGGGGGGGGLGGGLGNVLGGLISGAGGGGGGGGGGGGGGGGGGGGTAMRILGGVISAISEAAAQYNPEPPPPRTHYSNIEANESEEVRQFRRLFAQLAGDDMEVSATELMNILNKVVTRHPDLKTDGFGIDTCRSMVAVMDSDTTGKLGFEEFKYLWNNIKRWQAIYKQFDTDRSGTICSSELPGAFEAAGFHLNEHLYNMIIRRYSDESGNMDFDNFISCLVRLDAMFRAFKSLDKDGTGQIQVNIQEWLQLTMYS
# Method: (§1) The following solutions and buffers were employed: • HBS (for 40 ml): 800 μl M HEPES; 2.16 ml 100 mM KCl; 4.8 ml 1M NaCl; 3.59 ml 5% glucose; 60 μl μM MgSO4; 400 μl 100 mM Na pyruvate, 28.19 ml water; pH 7.2-7.5. • lysis buffer (for 20 ml): 400 μl M Tris pH 8.2; 2.74 ml 1M NaCl; 520 μl 0.5M EDTA; 2 ml 10% triton X-100; 0.8 ml (=1:25) CompletePlus (1 tablet/2 ml H2O); 200 μl 100 mM Pefabloc; 13.34 ml water, pH 8.2. • TBST (10×) (for 1 l): 100 mM Tris (12.1 g); 1.5M NaCl (87 g); 1% Tween 20 (10 g), adjusted to pH 8. I Enzyme Inhibition In Vitro: • Testing for blockade of the corresponding enzymic activities was carried out by means of kinetic fluorescence assays (excitation 390 nm, emission 460 nm). • Apparent Ki values were calculated from the experimentally determined IC50 values by the Cheng-Prussoff relation assuming a reversible competitive enzyme inhibition. The Km values of the substrates used under the assay conditions indicated above were: 90 μM (Z-Phe-Arg-AMC, cathepsin B), 10 μM (Z-Gly-Pro-Arg-AMC, cathepsin K), 2 μM (Z-Phe-Arg-AMC, cathepsin L), and 30 μM (Z-Val-Val-Arg-AMC, cathepsin S). • The indicated Ki values are averages of the inhibition constants calculated on the basis of 2 to 4 independent dose-effect plots.
# (§2) The following assays were used: • 1. Calpain I: • 20 nM calpain-I—isolated from human erythrocytes (Calbiochem #208713), 100 μM Suc-Leu-Tyr-AMC (Bachem #1-1355) as substrate in buffer with 62 mM imidazole, 0.3 mM CaCl2, 0.10% CHAPS, 0.05% BSA, 1 mM DTT at pH 7.3 and room temperature. • 2. Cathepsin B: • 0.25 nM cathepsin B—isolated from human liver (Calbiochem #219362), 100 μM Z-Phe-Arg-AMC (Bachem #I-1160) as substrate 50 mM MES, 2 mM EDTA, 0.05% Brij 35, 2.5 mM L-cysteine, pH 6.0, room temperature. • 3. Cathepsin K: • 3 nM cathepsin K—activated from recombinant human procathepsin K from E. coli (Calbiochem #342001), 10 μM Z-Gly-Pro-Arg-AMC (Biomol #P-142) as substrate in 50 mM MES, 2 mM EDTA, 0.05% Brij 35, 2.5 mM L-cysteine, pH 6.0, room temperature. • 4. Cathepsin L: • 1 nM cathepsin L—isolated from human liver (Calbiochem #219402), 2 μM Z-Phe-Arg-AMC (Bachem #1-1160) as substrate in 50 mM MES, 2 mM EDTA, 0.05% Brij 35, 2.5 mM L-cysteine, pH 6.0, room temperature. • 5. Cathepsin S: • 0.5 nM recombinant human cathepsin S from E. coli (Calbiochem #219343), 20 μM Z-Val-Val-Arg-AMC (Bachem #1-1540) as substrate in 50 mM MES, 2 mM EDTA, 0.05% Brij 35, 2.5 mM L-cysteine, pH 6.0, room temperature. • The results of the in vitro determination are indicated in Table 1. The following abbreviations are used in Table 1: • The “Calpain activity” column, ++ stands for a calpain Ki (Ki(calpain)) of ≦40 nM and + means: 40 nM<Ki(Calpain)≦100 nM. • The “Sel. cat. B” column indicates the Ki(cathepsin B)/Ki(calpain) ratio. In this connection, ++ means a Ki(cathepsin B)/Ki(calpain) ratio of ≧30 and + means 10≦Ki(cathepsin B)/Ki(calpain)<30. • The “Sel. cat. K” column indicates the Ki(cathepsin K)/Ki(calpain) ratio. In this connection, ++ means a Ki(cathepsin K)/Ki(calpain) ratio of ≧30 and + means 10≦Ki(cathepsin K)/Ki(calpain)<30. • The “Sel. cat. L” column indicates the Ki(cathepsin L)/Ki(calpain) ratio. In this connection, ++ means a Ki(cathepsin L)/Ki(calpain) ratio of ≧50 and + means 30≦Ki(cathepsin L)/Ki(calpain)<50. • The “Sel. cat. S” column indicates the Ki(cathepsin S)/Ki(calpain) ratio. In this connection, ++ means a Ki(cathepsin S)/Ki(calpain) ratio of ≧100 and + means 50≦Ki(cathepsin S)/Ki(calpain)<100.
# [2] = target: T2, cathepsin L isolated from human liver (Homo sapiens, UniProt P07711); assay: Cathepsin L kinetic fluorescence enzyme inhibition assay; conditions: selectivity ratio versus calpain I
# T2 construct: cathepsin L—isolated from human liver; purchased Calbiochem 219402; host or cells: human liver (tissue isolate)
# Method: as §1, §2
# [3] = target: T3, recombinant human cathepsin S (Homo sapiens, UniProt P25774); assay: Cathepsin S kinetic fluorescence enzyme inhibition assay; conditions: selectivity ratio versus calpain I
# T3 construct: purchased Calbiochem 219343; host or cells: E. coli
# Method: as §1, §2
# T3 sequence (P25774 115-331): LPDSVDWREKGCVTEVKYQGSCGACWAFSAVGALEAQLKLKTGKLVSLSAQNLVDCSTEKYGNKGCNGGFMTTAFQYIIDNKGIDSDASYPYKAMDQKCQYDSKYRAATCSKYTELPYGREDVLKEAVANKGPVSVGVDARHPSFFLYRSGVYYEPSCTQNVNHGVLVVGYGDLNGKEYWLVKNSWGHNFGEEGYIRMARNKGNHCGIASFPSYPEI
# T2 sequence (P07711 114-333): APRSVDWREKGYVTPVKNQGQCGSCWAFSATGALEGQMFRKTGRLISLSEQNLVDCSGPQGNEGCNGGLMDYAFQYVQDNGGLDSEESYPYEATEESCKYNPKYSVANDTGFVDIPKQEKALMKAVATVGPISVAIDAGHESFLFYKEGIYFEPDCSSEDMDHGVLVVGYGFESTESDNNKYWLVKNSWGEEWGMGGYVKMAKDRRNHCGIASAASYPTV
Ki [1] [nM],Compound,Sel cat. L (Ki(cathepsin L)/Ki(calpain) ratio) [2],Sel cat. S (Ki(cathepsin S)/Ki(calpain) ratio) [3]
≤ 40,"CCCCC(NC(=O)c1cccnc1-n1cnc(-c2ccccc2)c1)C(=O)C(N)=O (centres unmarked) [Example 2, N-{1-[Amino(oxo)acetyl]pentyl}-2-(4-phenyl-1H-imidazol-1-yl)nicotinamide]",++ (Ki(cathepsin L)/Ki(calpain) ratio of ≧50),–
≤ 40,"NC(=O)C(=O)C(Cc1ccccc1)NC(=O)c1cccnc1-n1cnc(-c2ccc(Cl)cc2)c1 (centres unmarked) [Example 9, N-(3-Amino-1-benzyl-2,3-dioxopropyl)-2-[4-(4-chlorophenyl)-1H-imidazol-1-yl]nicotinamide]",+ (30≦Ki(cathepsin L)/Ki(calpain)<50),++ (Ki(cathepsin S)/Ki(calpain) ratio of ≧100)
40 to 100,"COc1ccc(-c2cn(-c3ncccc3C(=O)NC(Cc3ccccc3)C(=O)C(N)=O)cn2)cc1 (centres unmarked) [Example 13, N-(3-Amino-1-benzyl-2,3-dioxopropyl)-2-[4-(4-methoxyphenyl)-1H-imidazol-1-yl]nicotinamide]",++ (Ki(cathepsin L)/Ki(calpain) ratio of ≧50),+ (50≦Ki(cathepsin S)/Ki(calpain)<100)
≤ 40,"CCCCC(NC(=O)c1cccnc1-n1cnc(-c2ccc(N3CCOCC3)cc2)c1)C(=O)C(N)=O.Cl (centres unmarked) [Example 15, N-{1-[Amino(oxo)acetyl]pentyl}-2-[4-(4-morpholin-4-ylphenyl)-1H-imidazol-1-yl]nicotinamide hydrochloride]",++ (Ki(cathepsin L)/Ki(calpain) ratio of ≧50),+ (50≦Ki(cathepsin S)/Ki(calpain)<100)
≤ 40,"CCCCC(NC(=O)c1cccnc1-n1cnc(-c2ccc(C(F)(F)F)cc2)c1)C(=O)C(N)=O.Cl (centres unmarked) [Example 17, N-{1-[Amino(oxo)acetyl]pentyl}-2-{4-[4-(trifluoromethyl)phenyl]-1H-imidazol-1-yl}nicotinamide hydrochloride]",++ (Ki(cathepsin L)/Ki(calpain) ratio of ≧50),+ (50≦Ki(cathepsin S)/Ki(calpain)<100)
≤ 40,"Cl.NC(=O)C(=O)C(Cc1ccccc1)NC(=O)c1cccnc1-n1cnc(-c2ccc(C(F)(F)F)cc2)c1 (centres unmarked) [Example 18, N-(3-Amino-1-benzyl-2,3-dioxopropyl)-2-{4-[4-(trifluoromethyl)phenyl]-1H-imidazol-1-yl}nicotinamide hydrochloride]",+ (30≦Ki(cathepsin L)/Ki(calpain)<50),++ (Ki(cathepsin S)/Ki(calpain) ratio of ≧100)
≤ 40,"CCCCC(NC(=O)c1cc(Cl)cnc1-n1cnc(-c2ccccc2)c1)C(=O)C(N)=O.Cl (centres unmarked) [Example 24, N-{1-[Amino(oxo)acetyl]pentyl}-5-chloro-2-(4-phenyl-1H-imidazol-1-yl)nicotinamide hydrochloride]",+ (30≦Ki(cathepsin L)/Ki(calpain)<50),–
≤ 40,"Cc1cn(-c2ncccc2C(=O)NC(Cc2ccccc2)C(=O)C(N)=O)nc1-c1ccccc1 (centres unmarked) [Example 86, N-[3-Amino-2,3-dioxo-1-(phenylmethyl)propyl]-2-(4-methyl-3-phenyl-1H-pyrazol-1-yl)pyridine-3-carboxamide]",++ (Ki(cathepsin L)/Ki(calpain) ratio of ≧50),–
40 to 100,"COCc1cn(-c2ncccc2C(=O)NC(Cc2ccccc2)C(=O)C(N)=O)nc1-c1ccc(F)cc1 (centres unmarked) [Example 170, N-[3-Amino-2,3-dioxo-1-(phenylmethyl)propyl]-2-{3-(4-fluorophenyl)-4-[(methyloxy)methyl]-1H-pyrazol-1-yl}pyridine-3-carboxamide]",+ (30≦Ki(cathepsin L)/Ki(calpain)<50),–
40 to 100,"NC(=O)C(=O)C(Cc1ccccc1)NC(=O)c1cccnc1-n1cc(CN2CCOCC2)c(-c2cccc(C(F)(F)F)c2)n1 (centres unmarked) [Example 177, N-[3-Amino-2,3-dioxo-1-(phenylmethyl)propyl]-2-{4-(morpholin-4-ylmethyl)-3-[3-(trifluoromethyl)phenyl]-1H-pyrazol-1-yl}pyridine-3-carboxamide]",–,++ (Ki(cathepsin S)/Ki(calpain) ratio of ≧100)
40 to 100,"NC(=O)C(=O)C(Cc1ccccc1)NC(=O)c1cccnc1-n1cc(CN2CCCC2)c(-c2cccc(C(F)(F)F)c2)n1 (centres unmarked) [Example 178, N-[3-Amino-2,3-dioxo-1-(phenylmethyl)propyl]-2-{4-(pyrrolidin-1-ylmethyl)-3-[3-(trifluoromethyl)phenyl]-1H-pyrazol-1-yl}pyridine-3-carboxamide]",–,++ (Ki(cathepsin S)/Ki(calpain) ratio of ≧100)
–,"NC(=O)C(=O)C(Cc1ccccc1)NC(=O)c1cccnc1-n1cc(COc2ccccc2)c(-c2ccc(F)cc2)n1 (centres unmarked) [Example 179, N-[3-Amino-2,3-dioxo-1-(phenylmethyl)propyl]-2-{3-(4-fluorophenyl)-4-[(phenyloxy)methyl]-1H-pyrazol-1-yl}pyridine-3-carboxamide]",+ (30≦Ki(cathepsin L)/Ki(calpain)<50),++ (Ki(cathepsin S)/Ki(calpain) ratio of ≧100)
